Measurements published in the supplement of paper PMC10307832.

Tests used:
Test in all cases: relative viability (nuclei count vs DMSO), 5 days (fraction); higher = more cells survive
NCI-H1395 = system: NCI-H1395
In short: (§1)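 For relative viability, nuclei counts in treated wells were divided by those in vehicle wells. Lung cancer cell lines had been pin-tool dosed in 1536-well plates the day after seeding and cultured for 5 days, then fixed and stained in one step (final 0.05% Triton X-100, 1% formaldehyde, 1 ug/ml Hoechst) and imaged at 4×. Doses were one drug alone or a fixed anchor-drug dose plus five library-drug doses (not always all listed) in √10 steps, and values are duplicate-plate medians.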

NCI-H1734 = system: NCI-H1734
In short: as §1

NCI-H1915 = system: NCI-H1915
In short: as §1

NCI-H2023 = system: NCI-H2023
In short: as §1

NCI-H2087 = system: NCI-H2087
In short: as §1

NCI-H3122 = system: NCI-H3122
In short: as §1

NCI-H358 = system: NCI-H358
In short: as §1

NCI-H596 = system: NCI-H596
In short: as §1

NCI-H650 = system: NCI-H650
In short: as §1

NCI-H661 = system: NCI-H661
In short: as §1

NCI-H838 = system: NCI-H838
In short: as §1

SK-MES-1 = system: SK-MES-1
In short: as §1

SW 900 = system: SW 900
In short: as §1

Q: How did the relative viability (NCI-H1395; first compound 2.53 µM) turn out when `CCCCCCCCCCCC1=C(O)C(=O)C=C(O)C1=O` [Embelin] + O=C(c1cc(Cc2n[nH]c(=O)c3ccccc23)ccc1F)N1CCN(C(=O)C2CC2)CC1 [Olaparib] (partner 8 µM) was run?
A: The relative viability was 0.461.

Q: What about the relative viability (NCI-H1395; first compound 8 µM) of the same molecule?
A: Its relative viability is 0.443.

Q: And the relative viability (NCI-H1734; first compound 0.08 µM)?
A: The relative viability was 0.623.

Q: And the relative viability (NCI-H1734; first compound 0.8 µM)?
A: Its relative viability is 0.568.

Q: What about the relative viability (NCI-H1734; first compound 2.53 µM) of the same molecule?
A: The relative viability was 0.651.

Q: What about the relative viability (NCI-H1734; first compound 8 µM) of the same molecule?
A: The relative viability was 0.644.

Q: What about the relative viability (NCI-H1915; first compound 0.08 µM) of the same molecule?
A: Its relative viability is 0.274.

Q: And the relative viability (NCI-H1915; first compound 0.8 µM)?
A: Its relative viability is 0.254.

Q: And the relative viability (NCI-H1915; first compound 2.53 µM)?
A: Its relative viability is 0.243.

Q: And the relative viability (NCI-H1915; first compound 8 µM)?
A: The relative viability was 0.248.

Q: What about the relative viability (NCI-H2023; first compound 0.08 µM) of the same molecule?
A: The relative viability was 0.432.

Q: And the relative viability (NCI-H2023; first compound 0.8 µM)?
A: Its relative viability is 0.455.

Q: What about the relative viability (NCI-H2023; first compound 2.53 µM) of the same molecule?
A: The relative viability was 0.509.

Q: What about the relative viability (NCI-H2023; first compound 8 µM) of the same molecule?
A: The relative viability was 0.229.

Q: What about the relative viability (NCI-H2087; first compound 0.08 µM) of the same molecule?
A: The relative viability was 0.649.

Q: What about the relative viability (NCI-H2087; first compound 0.8 µM) of the same molecule?
A: Its relative viability is 0.729.

Q: And the relative viability (NCI-H2087; first compound 2.53 µM)?
A: The relative viability was 0.688.

Q: And the relative viability (NCI-H2087; first compound 8 µM)?
A: The relative viability was 0.607.

Q: What about the relative viability (NCI-H3122; first compound 0.08 µM) of the same molecule?
A: The relative viability was 0.646.

Q: And the relative viability (NCI-H3122; first compound 0.8 µM)?
A: The relative viability was 0.603.

Q: And the relative viability (NCI-H3122; first compound 2.53 µM)?
A: Its relative viability is 0.609.

Q: What about the relative viability (NCI-H3122; first compound 8 µM) of the same molecule?
A: Its relative viability is 0.671.

Q: And the relative viability (NCI-H358; first compound 0.08 µM)?
A: Its relative viability is 0.554.

Q: And the relative viability (NCI-H358; first compound 0.8 µM)?
A: The relative viability was 0.658.

Q: What about the relative viability (NCI-H358; first compound 2.53 µM) of the same molecule?
A: The relative viability was 0.711.

Q: And the relative viability (NCI-H358; first compound 8 µM)?
A: Its relative viability is 0.623.

Q: And the relative viability (NCI-H596; first compound 0.08 µM)?
A: Its relative viability is 0.698.

Q: And the relative viability (NCI-H596; first compound 0.8 µM)?
A: The relative viability was 0.707.

Q: What about the relative viability (NCI-H596; first compound 2.53 µM) of the same molecule?
A: The relative viability was 0.68.

Q: And the relative viability (NCI-H596; first compound 8 µM)?
A: Its relative viability is 0.762.

Q: And the relative viability (NCI-H650; first compound 0.08 µM)?
A: The relative viability was 0.385.

Q: What about the relative viability (NCI-H650; first compound 0.8 µM) of the same molecule?
A: The relative viability was 0.407.

Q: What about the relative viability (NCI-H650; first compound 2.53 µM) of the same molecule?
A: The relative viability was 0.371.

Q: What about the relative viability (NCI-H650; first compound 8 µM) of the same molecule?
A: The relative viability was 0.381.

Q: And the relative viability (NCI-H661; first compound 0.08 µM)?
A: Its relative viability is 0.771.

Q: What about the relative viability (NCI-H661; first compound 0.8 µM) of the same molecule?
A: The relative viability was 0.75.

Q: What about the relative viability (NCI-H661; first compound 2.53 µM) of the same molecule?
A: The relative viability was 0.737.

Q: And the relative viability (NCI-H661; first compound 8 µM)?
A: The relative viability was 0.722.

Q: And the relative viability (NCI-H838; first compound 0.08 µM)?
A: Its relative viability is 0.736.

Q: What about the relative viability (NCI-H838; first compound 0.8 µM) of the same molecule?
A: The relative viability was 0.83.

Q: What about the relative viability (NCI-H838; first compound 2.53 µM) of the same molecule?
A: Its relative viability is 0.883.

Q: And the relative viability (NCI-H838; first compound 8 µM)?
A: The relative viability was 0.766.

Q: What about the relative viability (SK-MES-1; first compound 0.08 µM) of the same molecule?
A: The relative viability was 0.757.

Q: And the relative viability (SK-MES-1; first compound 0.8 µM)?
A: Its relative viability is 0.815.

Q: What about the relative viability (SK-MES-1; first compound 2.53 µM) of the same molecule?
A: Its relative viability is 0.802.

Q: What about the relative viability (SK-MES-1; first compound 8 µM) of the same molecule?
A: Its relative viability is 0.214.

Q: What about the relative viability (SW 900; first compound 0.08 µM) of the same molecule?
A: The relative viability was 1.

Q: What about the relative viability (SW 900; first compound 0.8 µM) of the same molecule?
A: Its relative viability is 0.771.

Q: And the relative viability (SW 900; first compound 2.53 µM)?
A: Its relative viability is 1.15.

Q: What about the relative viability (SW 900; first compound 8 µM) of the same molecule?
A: Its relative viability is 0.918.
